Data reported in ChEMBL document CHEMBL4725465 (ACS Med Chem Lett, 2020).
Where a SMILES comes first, the peptide text is derived from it. [ ]: non-standard residue; d: D form. The star is where a group is joined. Gly(N-(2R-Ph-propyl)) = C[C@@H](CNCC(=O)O)c1ccccc1; Piperidin1yl(4-NH2,4-COOH) = NC1(C(=O)O)CCN(*)CC1; N(Indan-2-yl)Gly = O=C(O)CNC1Cc2ccccc2C1; Gly(NCH2CH2Ph) = O=C(O)CNCCc1ccccc1; Morpholide = C1CN(*)CCO1; X1 = CNC(=O)NC1CCN(*)CC1

Experiments:
[1] = molecular target: Kappa-type opioid receptor (Homo sapiens, UniProt P41145); test: Agonist activity at human kappa opioid receptor expressed in HEK293 cells assessed as inhibition of forskolin-induced cAMP accumulation measured after 5 hrs by One-Glo luciferase assay; format: functional, cell-based
Sequence of Kappa-type opioid receptor (P41145 whole entry): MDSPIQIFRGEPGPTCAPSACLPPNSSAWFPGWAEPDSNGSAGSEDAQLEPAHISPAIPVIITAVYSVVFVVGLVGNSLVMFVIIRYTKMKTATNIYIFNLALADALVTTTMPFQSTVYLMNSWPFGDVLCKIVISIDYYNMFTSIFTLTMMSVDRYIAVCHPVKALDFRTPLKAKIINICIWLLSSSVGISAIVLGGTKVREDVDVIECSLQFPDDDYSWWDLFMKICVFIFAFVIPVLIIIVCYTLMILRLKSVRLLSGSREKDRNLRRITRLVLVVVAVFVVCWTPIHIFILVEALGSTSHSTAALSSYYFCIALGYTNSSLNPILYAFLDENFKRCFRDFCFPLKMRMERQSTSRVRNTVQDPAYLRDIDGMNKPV

[2] = molecular target: T1, Cytochrome P450 3A4 (Homo sapiens, UniProt P08684); test: Inhibition of CYP3A4 in human pooled liver microsomes using testosterone as substrate measured up to 20 mins by UHPLC-MS/MS analysis; format: ADME
T1 sequence (P08684 whole entry): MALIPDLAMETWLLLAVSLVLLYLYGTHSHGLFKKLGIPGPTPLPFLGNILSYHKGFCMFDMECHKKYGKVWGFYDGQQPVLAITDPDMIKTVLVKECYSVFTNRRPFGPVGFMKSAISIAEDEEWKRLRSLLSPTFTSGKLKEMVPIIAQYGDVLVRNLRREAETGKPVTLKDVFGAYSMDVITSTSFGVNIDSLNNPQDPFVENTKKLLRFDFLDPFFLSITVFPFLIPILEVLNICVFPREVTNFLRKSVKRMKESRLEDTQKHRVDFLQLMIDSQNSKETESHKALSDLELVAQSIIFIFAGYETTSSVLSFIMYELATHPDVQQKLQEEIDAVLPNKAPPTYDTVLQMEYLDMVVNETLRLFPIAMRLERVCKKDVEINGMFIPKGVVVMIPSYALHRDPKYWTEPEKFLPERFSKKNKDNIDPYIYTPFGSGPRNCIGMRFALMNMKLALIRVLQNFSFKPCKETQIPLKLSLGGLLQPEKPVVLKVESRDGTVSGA

[3] = molecular target: Mu-type opioid receptor (Homo sapiens, UniProt P35372); test: Agonist activity at human mu opioid receptor assessed as inhibition of forskolin-induced cAMP accumulation; format: ADME
Sequence of Mu-type opioid receptor (P35372 whole entry): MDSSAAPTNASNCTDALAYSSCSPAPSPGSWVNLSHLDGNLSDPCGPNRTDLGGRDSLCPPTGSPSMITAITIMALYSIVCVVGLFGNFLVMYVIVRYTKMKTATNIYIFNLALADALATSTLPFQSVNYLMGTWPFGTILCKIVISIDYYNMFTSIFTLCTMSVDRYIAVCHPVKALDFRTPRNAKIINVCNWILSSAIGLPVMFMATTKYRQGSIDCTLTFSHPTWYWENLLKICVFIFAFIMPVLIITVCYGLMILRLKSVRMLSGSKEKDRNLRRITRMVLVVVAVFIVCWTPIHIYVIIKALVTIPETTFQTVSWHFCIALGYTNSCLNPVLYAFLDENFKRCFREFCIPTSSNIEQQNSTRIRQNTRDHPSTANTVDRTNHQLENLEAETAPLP

[4] = Drug concentration in Sprague-Dawley rat brain at 1 mg/kg, iv; format: ADME, organism-based; settings: in vivo
[5] = Apparent volume of distribution in Beagle dog at 0.5 mg/kg, iv measured up to 24 hrs; format: ADME, organism-based, Canis lupus familiaris; settings: in vivo, read-out: Vz
[6] = Half life in Beagle dog at 0.5 mg/kg, iv measured up to 24 hrs; format: ADME, organism-based, Canis lupus familiaris; settings: in vivo
[7] = Half life in Sprague-Dawley rat at 1 mg/kg, iv measured up to 24 hrs; format: ADME, organism-based; settings: in vivo
[8] = Unbound fraction in Sprague-Dawley rat brain at 1 mg/kg, iv; format: ADME, organism-based
[9] = test system: Rattus norvegicus; test: Antiinflammatory activity in carrageenan-induced pain in iv dosed Wistar rat model assessed as effect on hindpaw withdrawal threshold administered 4 hrs post-carrageenan challenge and measured for 30 mins after compound administration by Von-Frey test; format: functional, organism-based; settings: dose mg/kg 0.03-0.3, time 30.0 min
[10] = molecular target: Cytochrome P450 2D6 (Homo sapiens, UniProt P10635); test: Inhibition of CYP2D6 in human pooled liver microsomes using dextromethorphan as substrate measured up to 20 mins by UHPLC-MS/MS analysis; format: ADME
Sequence of Cytochrome P450 2D6 (P10635 whole entry): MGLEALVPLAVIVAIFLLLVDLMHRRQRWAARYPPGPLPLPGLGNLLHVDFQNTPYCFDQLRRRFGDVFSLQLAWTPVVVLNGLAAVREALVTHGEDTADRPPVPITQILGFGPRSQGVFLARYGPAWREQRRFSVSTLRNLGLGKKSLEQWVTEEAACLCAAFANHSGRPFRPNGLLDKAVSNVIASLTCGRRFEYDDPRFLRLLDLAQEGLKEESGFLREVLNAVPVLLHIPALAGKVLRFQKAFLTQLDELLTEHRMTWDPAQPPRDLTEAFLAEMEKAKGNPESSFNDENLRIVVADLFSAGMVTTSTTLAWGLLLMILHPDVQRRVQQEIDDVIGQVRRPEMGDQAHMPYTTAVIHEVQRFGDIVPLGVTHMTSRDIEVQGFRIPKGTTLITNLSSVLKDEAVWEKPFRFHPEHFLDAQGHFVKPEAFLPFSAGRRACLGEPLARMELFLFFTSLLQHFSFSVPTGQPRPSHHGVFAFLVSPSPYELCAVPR

[11] = Unbound fraction in Sprague-Dawley rat plasma at 1 mg/kg, iv; format: ADME, organism-based
[12] = Apparent volume of distribution in ICR mouse at 1 mg/kg, iv measured up to 24 hrs; format: ADME, organism-based; settings: in vivo, read-out: Vz
[13] = Half life in dog liver microsomes; format: ADME, Canis lupus familiaris, Microsome
[14] = Unbound brain-to-plasma concentration ratio in Sprague-Dawley rat at 1 mg/kg, iv; format: ADME, organism-based; settings: read-out: K(p,uu,brain)
[15] = Half life in mouse liver microsomes; format: ADME, Microsome
[16] = Drug concentration in Sprague-Dawley rat plasma at 1 mg/kg, iv; format: ADME, organism-based; settings: in vivo
[17] = AUC (0 to t) in Sprague-Dawley rat at 1 mg/kg, iv measured up to 24 hrs; format: ADME, organism-based; parameters: route intravenous, dose 1 mg/kg, time <=24; settings: in vivo
[18] = Half life in human liver microsomes; format: ADME, Microsome
[19] = Half life in rat liver microsomes; format: ADME, Microsome
[20] = Clearance in ICR mouse at 1 mg/kg, iv measured up to 24 hrs; format: ADME, organism-based; settings: in vivo
[21] = Clearance in Sprague-Dawley rat at 1 mg/kg, iv measured up to 24 hrs; format: ADME, organism-based; settings: in vivo
[22] = Clearance in Beagle dog at 0.5 mg/kg, iv measured up to 24 hrs; format: ADME, organism-based, Canis lupus familiaris; settings: in vivo
[23] = AUC (0 to t) in Beagle dog at 0.5 mg/kg, iv measured up to 24 hrs; format: ADME, organism-based, Canis lupus familiaris; parameters: route intravenous, dose 0.5 mg/kg, time <=24; settings: in vivo
[24] = Apparent volume of distribution in Sprague-Dawley rat at 1 mg/kg, iv measured up to 24 hrs; format: ADME, organism-based; settings: in vivo, read-out: Vz
[25] = molecular target: Cytochrome P450 2C19 (Homo sapiens, UniProt P33261); test: Inhibition of CYP2C19 in human pooled liver microsomes using S-mephenytoin as substrate measured up to 20 mins by UHPLC-MS/MS analysis; format: ADME
Sequence of Cytochrome P450 2C19 (P33261 whole entry): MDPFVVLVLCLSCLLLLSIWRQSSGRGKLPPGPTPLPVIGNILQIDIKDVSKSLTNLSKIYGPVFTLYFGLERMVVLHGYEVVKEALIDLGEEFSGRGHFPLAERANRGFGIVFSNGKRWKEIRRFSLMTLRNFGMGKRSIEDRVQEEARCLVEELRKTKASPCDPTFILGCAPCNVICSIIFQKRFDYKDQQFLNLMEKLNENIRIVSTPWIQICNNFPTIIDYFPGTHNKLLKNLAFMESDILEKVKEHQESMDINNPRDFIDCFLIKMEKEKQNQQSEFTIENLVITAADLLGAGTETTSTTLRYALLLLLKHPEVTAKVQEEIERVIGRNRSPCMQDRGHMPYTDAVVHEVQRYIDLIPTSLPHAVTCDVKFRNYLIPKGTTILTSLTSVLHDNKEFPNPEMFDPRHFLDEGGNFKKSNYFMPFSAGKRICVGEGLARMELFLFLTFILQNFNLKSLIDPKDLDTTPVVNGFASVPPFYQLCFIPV

[26] = molecular target: T2, Cytochrome P450 1A2 (Homo sapiens, UniProt P05177); test: Inhibition of CYP1A2 in human pooled liver microsomes using phenacetin as substrate measured up to 20 mins by UHPLC-MS/MS analysis; format: ADME
T2 sequence (P05177 whole entry): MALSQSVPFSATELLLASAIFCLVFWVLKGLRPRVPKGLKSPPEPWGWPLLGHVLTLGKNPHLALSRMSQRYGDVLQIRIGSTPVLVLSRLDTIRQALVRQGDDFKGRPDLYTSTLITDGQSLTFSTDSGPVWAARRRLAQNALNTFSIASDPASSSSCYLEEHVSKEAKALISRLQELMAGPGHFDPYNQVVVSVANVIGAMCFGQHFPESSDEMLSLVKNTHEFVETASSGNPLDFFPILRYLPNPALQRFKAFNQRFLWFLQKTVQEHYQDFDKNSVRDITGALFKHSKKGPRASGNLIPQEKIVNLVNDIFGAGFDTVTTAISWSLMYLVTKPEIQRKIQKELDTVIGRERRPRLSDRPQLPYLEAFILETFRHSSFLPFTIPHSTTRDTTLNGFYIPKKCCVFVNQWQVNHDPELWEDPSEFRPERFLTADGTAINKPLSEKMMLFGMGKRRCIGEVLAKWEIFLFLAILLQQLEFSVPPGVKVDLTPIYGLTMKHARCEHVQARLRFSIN

[27] = test system: Rattus norvegicus; test: Antiinflammatory activity in carrageenan-induced pain in Wistar rat model assessed as effect on hindpaw withdrawal threshold at 0.03 to 0.3 mg/kg, iv administered 4 hrs post-carrageenan challenge and measured for 30 mins after compound administration by Von-Frey test relative to control; format: functional; settings: dose mg/kg 0.03-0.3, 0.5 h
[28] = molecular target: Voltage-gated inwardly rectifying potassium channel KCNH2 (Homo sapiens, UniProt Q12809); test: Inhibition of human ERG
Sequence of Voltage-gated inwardly rectifying potassium channel KCNH2 (Q12809 whole entry): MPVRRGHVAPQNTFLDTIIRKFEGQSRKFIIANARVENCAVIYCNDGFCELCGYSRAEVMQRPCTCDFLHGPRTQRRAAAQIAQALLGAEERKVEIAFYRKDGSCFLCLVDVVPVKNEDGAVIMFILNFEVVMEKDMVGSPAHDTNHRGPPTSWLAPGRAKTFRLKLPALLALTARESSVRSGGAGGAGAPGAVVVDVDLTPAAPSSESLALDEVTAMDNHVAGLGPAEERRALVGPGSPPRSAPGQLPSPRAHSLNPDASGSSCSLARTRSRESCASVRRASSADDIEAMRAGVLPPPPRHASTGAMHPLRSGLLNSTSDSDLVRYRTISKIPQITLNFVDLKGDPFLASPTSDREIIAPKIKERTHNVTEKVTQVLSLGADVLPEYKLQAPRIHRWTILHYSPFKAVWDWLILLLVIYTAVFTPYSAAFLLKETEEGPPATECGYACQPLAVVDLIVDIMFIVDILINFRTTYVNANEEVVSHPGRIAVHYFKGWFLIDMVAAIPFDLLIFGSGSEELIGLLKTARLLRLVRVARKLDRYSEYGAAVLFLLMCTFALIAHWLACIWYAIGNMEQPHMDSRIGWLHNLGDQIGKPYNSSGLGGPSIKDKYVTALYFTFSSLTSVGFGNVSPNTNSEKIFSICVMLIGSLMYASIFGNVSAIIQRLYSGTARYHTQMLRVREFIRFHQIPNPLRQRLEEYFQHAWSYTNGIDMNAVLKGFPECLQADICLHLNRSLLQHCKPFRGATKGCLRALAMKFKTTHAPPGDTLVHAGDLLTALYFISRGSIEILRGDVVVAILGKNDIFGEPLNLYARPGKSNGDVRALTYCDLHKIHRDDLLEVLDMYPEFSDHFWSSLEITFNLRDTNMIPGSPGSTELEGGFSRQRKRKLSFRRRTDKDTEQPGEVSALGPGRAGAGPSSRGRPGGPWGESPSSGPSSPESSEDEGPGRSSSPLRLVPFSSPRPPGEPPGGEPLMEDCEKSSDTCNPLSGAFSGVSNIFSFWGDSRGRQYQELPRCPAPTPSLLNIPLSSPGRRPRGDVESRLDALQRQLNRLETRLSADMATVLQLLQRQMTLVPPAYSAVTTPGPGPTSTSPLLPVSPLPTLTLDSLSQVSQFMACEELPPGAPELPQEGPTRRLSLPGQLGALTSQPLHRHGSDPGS

[29] = molecular target: T1, Cytochrome P450 3A4; test: Inhibition of CYP3A4 in human pooled liver microsomes using midazolam as substrate measured up to 20 mins by UHPLC-MS/MS analysis; format: ADME
[30] = test system: Rattus norvegicus; test: Antiinflammatory activity in carrageenan-induced pain in Wistar rat model assessed as effect on hindpaw withdrawal threshold at 0.3 mg/kg, iv administered 4 hrs post-carrageenan challenge and measured for 30 mins after compound administration by Von-Frey test relative to control; format: functional; settings: dose mg/kg 0.03-0.3, 0.5 h
[31] = AUC (0 to t) in ICR mouse at 1 mg/kg, iv measured up to 24 hrs; format: ADME, organism-based; parameters: route intravenous, dose 1 mg/kg, time 24 hrs; settings: in vivo
[32] = molecular target: Delta-type opioid receptor (Homo sapiens, UniProt P41143); test: Agonist activity at human delta opioid receptor assessed as inhibition of forskolin-induced cAMP accumulation
Sequence of Delta-type opioid receptor (P41143 whole entry): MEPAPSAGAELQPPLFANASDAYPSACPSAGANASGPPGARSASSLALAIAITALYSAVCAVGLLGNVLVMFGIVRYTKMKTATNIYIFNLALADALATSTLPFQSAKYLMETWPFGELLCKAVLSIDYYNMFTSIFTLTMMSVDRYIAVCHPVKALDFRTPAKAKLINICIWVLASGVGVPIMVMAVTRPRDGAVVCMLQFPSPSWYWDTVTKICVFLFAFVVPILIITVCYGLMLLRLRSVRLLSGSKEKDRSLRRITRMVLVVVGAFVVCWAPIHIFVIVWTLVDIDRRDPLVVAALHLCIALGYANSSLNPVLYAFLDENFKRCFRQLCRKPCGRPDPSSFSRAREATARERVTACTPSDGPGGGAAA

[33] = molecular target: Cytochrome P450 2C9 (Homo sapiens, UniProt P11712); test: Inhibition of CYP2C9 in human pooled liver microsomes using tolbutamide as substrate measured up to 20 mins by UHPLC-MS/MS analysis; format: ADME
Sequence of Cytochrome P450 2C9 (P11712 whole entry): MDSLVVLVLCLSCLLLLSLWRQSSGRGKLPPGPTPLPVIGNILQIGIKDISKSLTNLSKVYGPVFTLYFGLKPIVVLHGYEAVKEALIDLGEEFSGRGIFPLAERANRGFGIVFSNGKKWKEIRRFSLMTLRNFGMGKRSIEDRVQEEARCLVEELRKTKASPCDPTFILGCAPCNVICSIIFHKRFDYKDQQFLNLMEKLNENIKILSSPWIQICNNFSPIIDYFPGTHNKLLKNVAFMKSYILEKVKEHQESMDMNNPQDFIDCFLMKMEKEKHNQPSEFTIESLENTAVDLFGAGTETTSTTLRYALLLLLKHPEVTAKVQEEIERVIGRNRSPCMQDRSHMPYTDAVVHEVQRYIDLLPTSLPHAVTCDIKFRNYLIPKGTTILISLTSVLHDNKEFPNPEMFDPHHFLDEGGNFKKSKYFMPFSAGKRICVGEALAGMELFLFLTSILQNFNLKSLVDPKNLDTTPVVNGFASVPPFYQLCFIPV

[34] = Half life in ICR mouse at 1 mg/kg, iv measured up to 24 hrs; format: ADME, organism-based; settings: in vivo

CC(C)C[C@@H](NC(=O)[C@@H](Cc1ccccc1)NC(=O)[C@@H]1Cc2ccccc2CN1)C(=O)N[C@H](CCCCN)C(=O)N1CCOCC1
EC50 [1]: > 1 nM

CC(C)C[C@@H](NC(=O)[C@@H](Cc1ccccc1)NC(=O)C1(NCCc2ccccc2)CC1)C(=O)N[C@H](CCCCN)C(=O)N1CCC(N)(C(=O)O)CC1
EC50 [1]: > 1 nM

CC(C)C[C@@H](NC(=O)[C@@H](Cc1ccccc1)NC(=O)CNCc1ccccc1)C(=O)N[C@H](CCCCN)C(=O)N1CCOCC1
EC50 [1]: > 1 nM

CC(C)C[C@@H](NC(=O)[C@@H](Cc1ccccc1)NC(=O)CNC[C@@H](c1ccccc1)C(C)C)C(=O)N[C@H](CCCCN)C(=O)N1CCC(N)(C(=O)O)CC1
EC50 [1]: 0.0095 nM

CC(C)C[C@@H](NC(=O)[C@@H](Cc1ccccc1)NC(=O)CN[C@H]1C[C@@H]1c1ccccc1)C(=O)N[C@H](CCCCN)C(=O)N1CCOCC1
EC50 [1]: 0.08 nM

CC(C)C[C@@H](NC(=O)[C@@H](Cc1ccccc1)NC(=O)CNC[C@@H](C)c1ccccc1)C(=O)N[C@H](CCCCN)C(=O)N1CCC(N)(C(=O)O)CC1
EC50 [1]: 0.0155 nM

CC(C)C[C@@H](NC(=O)[C@@H](Cc1ccccc1)NC(=O)CNCCCc1ccccc1)C(=O)N[C@H](CCCCN)C(=O)N1CCOCC1
EC50 [1]: 0.045 nM

CC(C)C[C@@H](NC(=O)[C@@H](Cc1ccccc1)NC(=O)[C@@H](C)NCCc1ccccc1)C(=O)N[C@H](CCCCN)C(=O)N1CCC(N)(C(=O)O)CC1
EC50 [1]: > 1 nM

CC(C)C[C@@H](NC(=O)[C@@H](Cc1ccccc1)NC(=O)CNCC1(c2ccccc2)CC1)C(=O)N[C@H](CCCCN)C(=O)N1CCC(N)(C(=O)O)CC1
EC50 [1]: 0.057 nM

CC(C)C[C@@H](NC(=O)[C@@H](Cc1ccccc1)NC(=O)CNCCc1ccccc1)C(=O)N[C@H](CCCCN)C(=O)N1CCOCC1
EC50 [1]: 0.048 nM

CC(C)C[C@@H](NC(=O)[C@@H](Cc1ccccc1)NC(=O)CNCC(C)(C)c1ccccc1)C(=O)N[C@H](CCCCN)C(=O)N1CCC(N)(C(=O)O)CC1
EC50 [1]: 0.078 nM

CNC(=O)NC1CCN(C(=O)[C@@H](CCCCN)NC(=O)[C@@H](CC(C)C)NC(=O)[C@@H](Cc2ccccc2)NC(=O)CNC[C@H](C)c2ccccc2)CC1 (H-[Gly(N-(2R-Ph-propyl))][dF][dL][dK]-X1)
IC50 [2]: > 30000 nM | EC50 [3]: > 50000 nM | EC50 [1]: 0.00053 nM | Ct [4]: 57.2 ng/g | Vd [5]: 1.24 L/kg | half-life [6]: 4.45 h | half-life [7]: 4.78 h | fraction unbound [8]: 0.0258 | Activity [9]: Dose-dependent effect | IC50 [10]: > 30000 nM | fraction unbound [11]: 0.211 | Vd [12]: 0.297 L/kg | half-life [13]: 3.6 h | Kp uu [14]: 0.006 | half-life [15]: 1.92 h | Cp [16]: 1.144 µg/mL | AUC(0-t) at 24 h [17]: 1.55 µg·h/mL | half-life [18]: 0.667 h | half-life [19]: > 4.47 h | clearance [20]: 0.606 L/h/kg | clearance [21]: 0.63 L/h/kg | clearance [22]: 0.186 L/h/kg | AUC(0-t) at 24 h [23]: 2.62 µg·h/mL | Vd [24]: 4.51 L/kg | IC50 [25]: > 30000 nM | IC50 [26]: > 30000 nM | Activity [27]: 28.9% | IC50 [28]: > 30000 nM | IC50 [29]: > 30000 nM | Activity [30]: 66.7% | AUC(0-t) at 24 h [31]: 1.66 µg·h/mL | EC50 [32]: > 50000 nM | IC50 [33]: > 30000 nM | half-life [34]: 0.34 h

CC(C)C[C@@H](NC(=O)[C@@H](Cc1ccccc1)NC(=O)CNCCc1ccccc1)C(=O)N[C@H](CCCCN)C(=O)N1CCC(N)(C(=O)O)CC1 (H-[Gly(NCH2CH2Ph)][dF][dL][dK]-{Piperidin1yl(4-NH2,4-COOH)})
EC50 [1]: 0.054 nM

CC(C)C[C@@H](NC(=O)[C@@H](Cc1ccccc1)NC(=O)CNC1Cc2ccccc2C1)C(=O)N[C@H](CCCCN)C(=O)N1CCOCC1 (H-[N(Indan-2-yl)Gly][dF][dL][dK]-Morpholide)
EC50 [1]: > 1 nM

CCC(CNCC(=O)N[C@H](Cc1ccccc1)C(=O)N[C@H](CC(C)C)C(=O)N[C@H](CCCCN)C(=O)N1CCC(N)(C(=O)O)CC1)c1ccccc1 (mixture of isomers)
EC50 [1]: 0.0029 nM

CC(C)C[C@@H](NC(=O)[C@@H](Cc1ccccc1)NC(=O)[C@H](N)Cc1ccccc1)C(=O)N[C@H](CCCCN)C(=O)N1CCC(N)(C(=O)O)CC1 [DIFELIKEFALIN]
EC50 [1]: 0.00262 nM | Activity [30]: 61.9%

CC(C)C[C@@H](NC(=O)[C@@H](Cc1ccccc1)NC(=O)CNC[C@H](C)c1ccccc1)C(=O)N[C@H](CCCCN)C(=O)N1CCC(N)(C(=O)O)CC1 [RIMINKEFON]
EC50 [1]: 0.0014 nM
